Assay: gradient 5% acetonitrile 3 min, to 50% in 2 min, to 85% in 15 min, held 3 min, 100 µL/min
Details: column: Zorbax Extend-C18 2.1 x 50 mm; eluents: water / acetonitrile, 0.1% formic acid
How it was run: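 Retention times of pure standards were taken from adduct peaks that were selected by computer and manually inspected. Over 3 months, mixtures of ~100 molecules were run by HPLC–quadrupole time-of-flight mass spectrometry in positive and negative ionization mode. The Zorbax Extend-C18 column (2.1 × 50 mm, 1.8 μm) ran at 100 μL/min in water and acetonitrile, each containing 0.1% formic acid, with 40 μL dead volume and 900 μL dwell volume.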

Row | SMILES | RP-LC retention time [s]
1 | c1ccc(-c2ccc(-c3nccc4ccccc34)[nH]2)cc1 | 806
2 | O=C(Cn1ccc2sccc2c1=O)Nc1cccc(F)c1 | 746
3 | CCN(CC)CCOc1ccc(/C(=C(\Cl)c2ccccc2)c2ccccc2)cc1 | 996
4 | Cc1oc(C2CCN(S(=O)(=O)c3cccs3)CC2)nc1C(=O)N1CCCC1 | 856
5 | COc1ccccc1C(=O)N1C[C@@H]2C[C@H]1C[C@@H]2NS(C)(=O)=O | 632
6 | CNC(=O)c1ccc(Nc2c(-c3ccc(OC)c(OC)c3)nc3cnccn23)cc1 | 606
7 | Cc1c([C@@H](C)C2NC[C@@H](C)C[C@H]2O)ccc2c1C[C@@H]1[C@H]2CC=C2C[C@@H](O)CC[C@@]21C (some centres undefined) | 749
8 | CCn1cc(S(=O)(=O)N2CCC(C3CCN(C(=O)NC)CC3)C2)cn1 (centres undefined) | 622
9 | CNC(=O)C1=CCN(C(=O)NC2CCCC2)CC1 | 615
10 | CCCN1CCN(C(=O)CN2C(=O)CCCc3cc(S(=O)(=O)N4CCOCC4)ccc32)CC1 | 590
11 | O=C(c1nccnc1-c1nc2ccccc2s1)N1CCc2ccccc21 | 941
12 | COc1ccc2[nH]c(=O)c(CCC(=O)NCc3cccc(OC)c3OC)cc2c1 | 694
13 | CCNC(=O)N1CC(C)Oc2ccccc21 (centres undefined) | 762
14 | Cc1oc(-c2cccc(Cl)c2)nc1Cn1nnc(-c2nc(-c3cccc(F)c3)no2)c1C | 1360
15 | O=C(NCc1ccc2c(c1)OCO2)C(=O)Nc1ccon1 | 655
16 | CCc1ccc(S(=O)(=O)c2cnc(N3CCc4ccccc4C3)nc2N)cc1 | 1170
17 | Clc1ccc(-c2ccc(CNc3ncn[nH]3)o2)c(Cl)c1 | 734
18 | CCc1nc2cc(-c3noc(Cc4ccc(OC)c(Cl)c4)n3)ccc2o1 | 1120
19 | O=C(Cc1ccc(Cl)cc1)NCC1CCN(C2CCCC2)CC1 | 566
20 | COc1ccc(S(=O)(=O)NCc2c(-c3ccccc3)nc3sc(C)nn23)cc1Cl | 912
21 | COc1c2c(cc3c1[C@@H]1Oc4c(ccc(O)c4CC=C(C)C)[C@@H]1CO3)OC(C)(C)C=C2 | 710
22 | CCOC(=O)Nc1nc(CC(=O)NCCc2c[nH]c3ccccc23)cs1 | 680

Row | SMILES | RP-LC retention time [s]
23 | COc1ccc(OC)c(S(=O)(=O)NCC(O)Cc2ccccc2)c1 (centres undefined) | 736
24 | O=C(O)c1nnn(-c2ccc3c(c2)OCCO3)c1-c1ccncc1 | 593
25 | COc1ccccc1-c1noc(Cn2ncn3nc(-c4ccc(F)cc4)cc3c2=O)n1 | 996
26 | O=C(N1CCC(Cc2nc(C3CCOCC3)no2)CC1)C1(c2ccccc2)CC1 | 817
27 | Cn1c([N+](=O)[O-])cnc1N1CCN(c2nncs2)C1=O | 689
28 | CCCCNC(=O)C1(c2ccc(NC(C)=O)cc2)CCC1 | 704
29 | Cn1nc(-c2ccncc2)nc1C1CN(S(=O)(=O)c2cc(F)ccc2F)C1 | 638
30 | Cc1ccc(NS(=O)(=O)c2c(C)sc(C)c2-c2cc(C(F)(F)F)on2)cc1C | 1220
31 | COc1cc([C@@H]2c3cc4c(cc3[C@H](O)[C@@H](CO)[C@@H]2C(=O)NCCc2ccccc2)OCO4)cc(OC)c1OC | 745
32 | c1ccc(-c2ccc(CNCC3CCCO3)o2)cc1 (centres undefined) | 642
33 | O=C(CCC1CCCN(S(=O)(=O)c2ccccc2F)C1)NC1CCS(=O)(=O)C1 (centres undefined) | 748
34 | CCc1c(C(=O)O)nnn1Cc1ccc(OC)cc1 | 734
35 | CC(C)CCN(Cc1ccco1)C(=O)Cn1nc2n(c1=O)CCC(N)CC2 (centres undefined) | 633
36 | CCN1C(=O)c2cc(S(=O)(=O)Nc3ccc(C)cc3)ccc2Oc2cccnc21 | 970
37 | COc1ccc(C)c2sc(NCCCn3ccnc3)nc12 | 552
38 | O=c1ccn(-c2ccc(Cl)cc2)nc1-c1nc(-c2cccc(F)c2)no1 | 954
39 | O=C(NCC1CCOCC1)c1ccc2c(c1)OCO2 | 655
40 | CCc1ccc(-c2noc(Cn3c(=O)n(-c4ccc(OC)cc4)c(=O)c4sccc43)n2)cc1 | 1150
41 | CN(C)C1CCCN(Cc2c(F)cccc2Cl)C1=O (centres undefined) | 604
42 | Cc1cccc(-c2nnc(-c3cc(S(=O)(=O)N(C)C)ccc3Cl)o2)c1 | 1050
43 | COCCCNC(=O)Nc1ccc2c(c1)CCN2S(=O)(=O)c1ccccc1 | 762

More lines, now with the values ahead:

Row | RP-LC retention time [s] | SMILES
44 | 623 | CCN(CCN(C)C)c1ccc(C(=O)O)cc1NS(=O)(=O)c1ccc(C)cc1
45 | 702 | Cc1ccc(NC(=O)NC2CCN(C(=O)N3C[C@H]4C[C@H](C3)[C@H]3CCCC(=O)N3C4)CC2)cc1C
46 | 614 | COc1cc(OC)c(NC(=O)Nc2ccc3nc(N4CCN(C)CC4)cc(C)c3c2)cc1Cl
47 | 1220 | Cc1ccc(-n2nc(C)c3sc(N4CCCC(C(=O)NCc5ccc(F)cc5Cl)C4)nc32)cc1 (centres undefined)
48 | 796 | COc1cc(NC(=O)CSC2CCc3ccccc3NC2=O)cc(OC)c1 (centres undefined)
49 | 648 | O=C(CSc1nnc(C2COc3ccccc3O2)o1)NCc1ccco1 (centres undefined)
50 | 709 | COc1ccc(S(=O)(=O)N2CCCC(C(=O)NCCCO)C2)cc1C (centres undefined)
51 | 647 | COC(=O)c1ccc(NC(=O)Cn2nc3n(c2=O)CCCC3)cc1
52 | 748 | Cc1cccc(NC(=O)N2CCC3(CC2)NC(=O)c2cc(F)ccc2N3C)c1
53 | 802 | COc1ccccc1-c1noc(C2CCCN2C(=O)c2ccsc2)n1 (centres undefined)
54 | 674 | CC(=O)c1cccc(NC(=O)Cn2cnc3nc4c(cc3c2=O)CCCC4)c1
55 | 704 | CCc1c(C(=O)O)nnn1-c1cccc(OC)c1
56 | 759 | Cc1cc2[nH]c(C(=O)Nc3ccc(Cl)cc3Cl)c(CN3CCOCC3)c2s1
57 | 700 | O=C(CN1CCC(c2nc(-c3ccccc3)no2)CC1)NC1CCCCC1
58 | 1020 | O=C(c1c(F)cccc1Cl)N1CCc2nc(-c3ccc(F)cc3)ncc2C1
59 | 995 | O=C(Nc1ccccc1Cl)C1CCCN(C(=O)Cc2cccc3ccccc23)C1 (centres undefined)
60 | 895 | CCSc1nnc(NC(=O)Cc2cc(-c3ccc4c(c3)CC(C)O4)on2)s1 (centres undefined)
61 | 1100 | Cc1ccc(NC(=O)CSc2cc(N3CCC(C)CC3)ncn2)c(C)c1
62 | 735 | COc1ncc(C(=O)N2CCN(c3ccc(F)cc3)CC2)cn1
63 | 741 | Cc1cc(C)n(CC(=O)N2CCCCC2c2nc(C3CC3)no2)n1 (centres undefined)
64 | 675 | CCOC(=O)c1c(S(=O)(=O)NCCN2CCc3ccccc3C2)c(C)n(C)c1C
65 | 672 | CN(C)CCNC(=O)c1cn(C)nc1S(=O)(=O)N1CCN(c2ccc(Cl)cc2)CC1
66 | 766 | CCn1c(=O)c(C(=O)NCc2ccc(C)o2)nc2cccnc21

Row | RP-LC retention time [s] | SMILES
67 | 806 | CNC(=O)CSc1nc(-c2ccccc2)c(NC(=O)COc2ccccc2F)s1
68 | 753 | CC1(C(=O)NC2CCCC2)Cn2cnc(C(=O)NCc3cccc(F)c3)c2C(=O)N1C1CC1 (centres undefined)
69 | 650 | CCOC(=O)c1cnn(-c2cccc(Cl)c2)c1C1CCNCC1
70 | 924 | O=C(CCC1CCCCC1)NC1CCN(c2ccc(=O)n(CC3CC3)n2)CC1
71 | 864 | O=C(c1cnn2c(-c3ccc4c(c3)OCO4)ccnc12)N1CCN(c2ccccc2)CC1
72 | 1170 | COc1ccc(-c2csc(NC(=O)C3(c4ccccc4)CCCC3)n2)cc1OC
73 | 625 | O=C(NC1CCCC1)c1c2c(nc3ccccc13)CCCC2
74 | 754 | COC(=O)c1ccc2c(=O)n(-c3ccc(Cl)cc3)c(N3CCN(C4CCCCC4)CC3)nc2c1
75 | 731 | CCc1ccc(C2=C(C)C(N3CCCN(C(=O)NCCOC)CC3)=NS2(=O)=O)cc1
76 | 1050 | Cc1ccc(-c2noc(-c3ccc(=O)n(CC(=O)OC(C)C)n3)n2)cc1
77 | 1030 | CCCS(=O)(=O)c1nc2ccc(NS(=O)(=O)c3c(C)cc(C)cc3C)cc2s1
78 | 705 | COc1ccc(N2CCN(C(=O)C3CCN(C(=O)C4Sc5ccccc5NC4=O)CC3)CC2)cc1 (centres undefined)
79 | 667 | COCCC(=O)Nc1cnn(-c2ncc(N3CCCCC3)cn2)c1
80 | 656 | O=C(O)CN1CCCc2c(cnn2Cc2ccccc2)C1=O
81 | 881 | CC(C)N1CCCn2cc(S(=O)(=O)Nc3cccc(OC(F)(F)F)c3)cc2C1=O
82 | 885 | CCc1nc(OCC(=O)Nc2ccc(C)cc2Cl)c2ccccc2n1
83 | 1210 | Cc1cccc(-c2nc(Cn3nnc(C(=O)NCc4ccc(C(F)(F)F)cc4)c3C)c(C)o2)c1
84 | 819 | COc1ccc(C(C)NC(=O)CCc2ccc3c(ccn3C)c2)cc1OC (centres undefined)
85 | 809 | CCOC(=O)c1cc(-c2ccc(S(=O)(=O)N3CCN(c4ccccn4)CC3)s2)on1
86 | 964 | Cc1cc(-c2nnc(-c3ccc(F)cc3)o2)c(C)n1CC(=O)Nc1ccc(F)cc1
87 | 828 | CCOc1ccccc1CNC(=O)C1CCCN(c2ccc(=O)n(-c3ccc(C)c(Cl)c3)n2)C1 (centres undefined)
88 | 938 | COc1cccc(NC(=O)CSc2cc(N3CCN(c4ccccc4OC)CC3)ncn2)c1
89 | 726 | COc1cc2c(cc1OC)C(C(=O)N1CCOCC1)C(c1ccc(SC)cc1)N(C)C2=O (centres undefined)

— the METLIN SMRT retention time set (Domingo-Almenara et al. 2019)
